Experimental data reported in patent EP2430044B1, “PEPTIDES INCREASING THE SECRETION AND/OR EXPRESSION OF AT LEAST ONE GAS[…] AND/OR INDUCING THE INCREASE OF MUCUS CELLS OR PANETH CELLS” (Institut National de la Recherche Agronomique (INRA), priority 2009, dated 2010).

Legend:
Type in all cases: cell-based, humaine
HT29-MTX = assay: Mucin secretion by HT29-MTX cells (ELLA on culture supernatants); settings: pre-incubation with cyprodime 10^-5 M
Method: (§1) Les cellules HT29-MTX et HT29-CI16E étaient cultivées en flasques de 25 cm^2 avec du milieu minimum essentiel DMEM supplémenté avec 10% de SVF (sérum de veau foetal) et 1 % d'antibiotiques (pénicilline 10 000 Ul/ml et streptomycine […]). Les cellules étaient incubées à 37°C dans une atmosphère humide (5 % de CO2 et […]). A confluence, les cellules soumises au préalable à l'action de la trypsine (trypsine-EDTA) étaient cultivées dans des plaques 12 puits à raison de 1 ml de milieu de culture complet par puits. Afin de maintenir les cellules dans des conditions optimales de croissance, le milieu de culture était changé tous les 2 jours.
(§2) Les expériences ont été réalisées sur les plaques 12 puits 21 jours après confluence des cellules. La veille de la stimulation, les plaques étaient cultivées sans SVF. Le pool peptidique total des yaourts ainsi que les différentes fractions lyophilisées étaient d'abord repris dans de l'eau stérile en solution 10 fois concentrée (10[Y]), [Y] correspondant à la concentration des peptides dans le yaourt initial). L'osmolarité et le pH des échantillons (ajusté à la neutralité par NaOH) étaient contrôlés à ce stade. Des dilutions successives ([Y], [Y]/2 et [Y]/5) étaient ensuite réalisées dans du milieu de culture dépourvu de SVF. Le jour de l'expérience, le milieu était aspiré puis les cellules étaient lavées avec du PBS à 37°C. […]

MUC2 = MUC2 expression in HT29-MTX cells (RT-PCR); settings: with cyprodime 10^-5 M
Method: as §1
as §2, with “stade.” for “stade. Des dilutions successives ([Y], [Y]/2 et [Y]/5) étaient ensuite réalisées dans du milieu de culture dépourvu de SVF. Le jour de l'expérience, le milieu était aspiré puis les cellules étaient lavées avec du PBS à 37°C.”
(§3) Les ARN ont été isolés et rétro-transcrits comme décrit précédemment puis les ADNc ont été quantifiés en capillaires à l'aide du kit « FastStart DNA Master SYBR Green l » sur un appareil « lightCycler » (Roche). […]

MUC4 = MUC4 expression in HT29-MTX cells (RT-PCR)
Method: as §1
as §2, with “stade.” for “stade. Des dilutions successives ([Y], [Y]/2 et [Y]/5) étaient ensuite réalisées dans du milieu de culture dépourvu de SVF. Le jour de l'expérience, le milieu était aspiré puis les cellules étaient lavées avec du PBS à 37°C.”
as §3

MUC5AC = MUC5AC expression in HT29-MTX cells (RT-PCR); settings: with cyprodime, quantitative RT-PCR (Lightcycler)
Method: as §1
as §2, with “stade.” for “stade. Des dilutions successives ([Y], [Y]/2 et [Y]/5) étaient ensuite réalisées dans du milieu de culture dépourvu de SVF. Le jour de l'expérience, le milieu était aspiré puis les cellules étaient lavées avec du PBS à 37°C.”
as §3

COc1cccc2c1[C@]13CCN(CC4CC4)[C@H](C2)[C@]1(OC)CCC(=O)C3 [cyprodime]
sécrétion de mucines induite par la fraction F3 (HT29-MTX; fraction F3 at concentration Y): inhibe | sécrétion de mucines induite par la fraction C2 (HT29-MTX; then fraction C2 at concentration Y, 4 h): inhibe | effet de la fraction C2 sur l'expression de MUC2 (MUC2): aboli | effet de la fraction C2 sur l'expression de MUC4 (MUC4; with cyprodime 10^-5 M): aboli | augmentation du niveau des transcrits codant MUC4 induite par la fraction F3 (MUC4; with cyprodime, quantitative RT-PCR (Lightcycler)): Un résultat identique | augmentation du niveau des transcrits codant MUC5AC induite par la fraction F3 (MUC5AC): abolit
